Measurements: US11058772B2, “(Bacterio)chlorophyll photosensitizers for treatment of eye diseases and disorders” (Yeda Research and Development Co. Ltd., priority 2011, dated 2021)
“Also recorded” adds a separate entry of the source.

Columns and labels:
rabbit cornea [1] = test: Clinical course after in vivo cornea treatment (edema, epithelial healing, haze); conditions: for epithelial haze / time to healing of corneal epithelial defect: dipotassium salt
Method: Twelve to twenty five weeks old rabbits (2.5-3 Kg weight) were used. They were anesthetized by intramuscular (i.m.) injection of 35 mg/kg ketamine (Rhone Merieux, Lyon, France) and 5 mg/kg xylazine (Vitamed, Binyamina, Israel). Usually, 16 rabbits were assigned for bacteriochlorophyll treatment. After de-epithelialization, one eye of each rabbit was treated topically with a test compound in saline for 10, 20 and 30 minutes using an eye cap (12 mm in diameter), followed by NIR illumination for 10, 20 or 30 minutes (755 nm, 10 mW/cm^2). The other eye served as untreated control. To prevent exposure of the limbal stem cells, the illuminated area was restricted by an aluminum foil mask with an 8 mm diameter central opening. To determine the role of dextran, 12 rabbits were divided into 4 treatment groups of 3 rabbits each: group 1, the Bchl-S group, was treated with a saline solution of a bacteriochlorophyll derivative; group 2, the Bchl-D group, treated with a bacteriochlorophyll-dextran solution. Both groups were incubated with the test compound for 20-min, followed by NIR illumination (755 nm, 10 mW/cm^2) for 30 minutes. Group 3, the RF group, was treated with riboflavin without dextran, and group 4, the RF-D group was treated with RF-dextran solution (RF-D). Both groups were incubated with RF or RF-D solutions for 30-minute, followed by UVA illumination (370 nm, 3 mW/cm^2) for 30 minutes. An ophthalmic ointment containing dexamethasone 0.1%, neomycin and polymixin B (Maxitrol®, Alcon, Belgium) was applied on the treated eyes once daily for two weeks. Four weeks after the treatment the rabbits were sacrificed, and the corneoscleral rings were removed and placed on paraffin hemisphere buttons of matching shape to assure accurate sectioning without stretching the tissue. Corneal strips, 4±0.2 mm in width, were cut from the epithelial side, as described above in the ex-vivo section. The corneal strips were transferred to the biomechanical tester without delay.
To determine the role of dextran, the photochemical treatment with a formulation of WST11 2.5 mg/ml containing 20% dextran T-500 (WST11-D) was examined. Six rabbits were examined: 3 rabbits were pretreated for 20 min with WST11-S solution and 3 with WST11-D solution, followed by NIR illumination for 30 minutes. Additional 4 rabbits were treated with RF (n=2) or RF-D (n=2) for 30 minutes, followed by 30-min UVA irradiation (370 nm, 3 mW/cm^2).

[2] = ESR spin trapping (4-POBN) of reactive oxygen species in aqueous solution; type: physicochemical; conditions: NIR (WST11) or UVA (RF) irradiation
Method: All ESR measurements were carried out using a Magnettech ESR Miniscope MS 100 Spectrometer (Germany), with a Microwave X-band Bridge. The ESR spectrometer operates at 9.3-9.55 GHz, 20 mW microwave power. ESR measurements were carried out at room temperature in glass capillaries or flat cells. […] To each solution, the spin-trap α-(4-pyridyl N-oxide)-N-tert-butylnitrone (4-POBN, 65 mM) and ethanol (8%) were added. Controls contained illuminated 4-POBN in saline with/without dextran, and non-illuminated Bchl-S, Bchl-D, RF and RF-D solutions with/without 4-POBN.

rabbit sclera = test: Depth of penetration into the rabbit sclera (fluorescence microscopy); type: in vitro ADME; conditions: ex vivo using eye cap and in-situ using Merocel sponge
Method: Test compound solution was applied in the supero-temporal or infero-nasal (alternating) quadrant of the rabbit by a curved plastic or metal glide with attached Merocel® sponge connected by a tube that ran along the glide outside. The glide was inserted through a conjunctival opening at the limbus (see FIGS. 17A-17B). After placing the glide attached to the sclera, the tube was connected to a syringe or pump, and the test compound reservoir was injected to impregnate the sclera. Application of the photosensitizer was continued for 10 or 30 minutes. Afterwards, the glide with the Merocel® was withdrawn.
The treated scleral area and the opposing control sclera were trephined with a round skin trephine of 8-mm diameter and scissors and immediately frozen. Sagittal slices of 20 microns were dissected with a cryomicrotome at the central area of the scleral button. The fluorescence intensity at 755 nm was recorded upon excitation at 740 nm using a fluorescence microscope (Olympus, Japan).

rabbit cornea [3] = test: Ex-vivo ESR measurements of rabbit corneas; conditions: cornea strips, 4-POBN 65 mM, ethanol 8%
Method: All ESR measurements were carried out using a Magnettech ESR Miniscope MS 100 Spectrometer (Germany), with a Microwave X-band Bridge. The ESR spectrometer operates at 9.3-9.55 GHz, 20 mW microwave power. ESR measurements were carried out at room temperature in glass capillaries or flat cells. Eyes of rabbits were enucleated post mortem. The corneas were de-epithelialized mechanically and corneal strips, 5 mm in width, were cut with a self-constructed double-blade cutter. The strips were immediately immersed for 30 min in solutions containing 4-POBN (65 mM) and ethanol (8%), and either Bchl-S or RF-D. Next, the strips were washed with saline and put in the flat-cells (0.5×5 mm^3) for NIR/UVA illumination followed by ESR measurements with the aforementioned Miniscope.

[4] = tested on: de-epithelialized rabbit cornea; test: Photobleaching of photosensitizer in ex-vivo treated corneas; conditions: 20 min pretreatment
Method: Corneas of eyes from euthanized rabbits were de-epithelialized. Usually, 5 rabbits were tested, and 8 of the 10 eyes were pretreated for 20 minutes with a bacteriochlorophyll derivative in saline (Bchl-S), using an eye cap. The solution excess was carefully tipped off with filter paper. The eyes were irradiated for the specified time duration: 0, 10, 30, and 60 min (two corneas per time frame). Additional two eyes were used as control. The corneas were removed, and the central buttons of 8-mm diameter were punched out with a round trephine. Absorption spectra were recorded using V-570 spectrophotometer (Jasco, Japan).
It was previously described by the present inventors that generation of oxygen radicals upon illumination of certain bacteriochlorophyll derivatives such as WST11 in the absence of serum albumin is accompanied by bleaching of the NIR transition and absorption increase at ˜645 nm due to the photochemical generation of a chlorophyll-like molecules (Ashur et al. 2009). Such changes are therefore important markers for the photochemical activity of such bacteriochlorophyll derivatives in situ. […] Results obtained for 10 corneas of 5 euthanized rabbits treated with WST11 in saline are presented herein.
Eight de-epithelialized eyes were retreated with WST11-S for 20 min using an eye cap, and the remaining 2 eyes served as control. […] In parallel, the absorption increased at 645 nm (upward arrow), typical to the corresponding chlorin derivative formation by the photochemical interaction of WST11 with molecular oxygen (Ashur et al., 2009)

[5] = tested on: rabbit cornea keratocytes; test: Staining for apoptosis (TUNEL assay); type: in vivo; conditions: one day postoperatively
Method: For apoptosis detection, rabbits were euthanized one day post Bchl-S or Bchl-D treatment. Their corneas were removed, fixated in 4% formaldehyde and embedded in paraffin. […] central sections were prepared from the corneas, placed on microscope slides and deparaffinized. Peroxidase-based terminal deoxyribonucleotidyl transferase-mediated dUTP-digoxigenin nick and labeling (TUNEL) assay was performed according to the manufacturer's instructions (Apop-Tag assay, Chemicon, Merck Millipore, Darmstadt, Germany).

[6] = in vivo after photosensitizer + illumination
[7] = in vivo after photosensitizer + illumination, listed as WST11-S

In the case of `CCC1C2=Cc3c(C)c(C(=O)NCCS(=O)(=O)[O-])c4[n]3[Pd][n]3c(c(C)c(C(C)=O)c3=CC(=N2)C1C)=CC1=NC(=C4CC(=O)OC)C(CCC(=O)[O-])C1C.[K+].[K+]` (centres unmarked) [WST11, Palladium 3^1-oxo-15-methoxycarbonylmethyl-rhodobacteriochlorin 13^1-(2-sulfoethyl)amide dipotassium salt], the “time to clearing of corneal edema” value (rabbit cornea [1]; [6]) was 5 days, the epithelial haze (rabbit cornea [1]; [6]) was “without haze development” and the “time to healing of corneal epithelial defect” value (rabbit cornea [1]; [6]) was 7 to 9 days. The epithelial haze (rabbit cornea [1]; [7]) was “some corneas demonstrating epithelial haze”, the “time to healing of corneal epithelial defect” value (rabbit cornea [1]; [7]) was 10 to 14 days and the “corneal edema after treatment, duration” value (rabbit cornea [1]; in vivo, saline solution/NIR) was “one week”. The “singlet oxygen trapping (ESR quartet of 4-POBN)” value [2] was “minimal traces of singlet oxygen”, the “superoxide and hydroxyl radicals (ESR sextet of 4-POBN)” value ([2]; dipotassium salt) was “generate superoxide and hydroxyl radicals; also recorded: superoxide and hydroxyl radical formation” and the penetration into sclera (rabbit sclera) was “penetrated into sclera tissue”. The “ESR signals of ROS trapped in the treated cornea” value (rabbit cornea [3]) was “no traces of singlet oxygen”, the “755-nm absorption of corneal WST11 diminished by” value (“755-nm absorption” below) ([4]; NIR illumination 10 min) was 30% and the “755-nm absorption” value ([4]; NIR illumination 30 min) was 50%. For the same molecule, the “755-nm absorption” value ([4]; NIR illumination 60 min) was 75% and the “location of TUNEL-positive keratocytes” value [5] was “outer ½ of anterior stroma”.
